The text below walks through data of patent publication US9285322B2, “pH modulation methods and systems for detecting binding events” (The Texas A&M University System, priority 2010, dated 2016).

One assay relates to different kinases. Particulars: cited from earlier work.
The target of assay [1] is T1, avidin (Gallus gallus, UniProt P02701). Put plainly: protein-protein interaction assay: labeled avidin with biotinylated BSA in two parallel microfluidic channels. It counts as binding.
Assay [2] concerns the target T1, avidin. Put plainly: homogeneous biotin detection with ortho-TEXAS RED-conjugated avidin in microfluidic channels. Format: binding. Particulars: 200 μM biotin, 10 μM ortho-TEXAS RED-conjugated avidin, PBS, pH 8.2.
The target in assay [3] is T2, calmodulin (Homo sapiens, UniProt P0DP23). Particulars: 1 M CaCl2, 66 μM dye-conjugated calmodulin, 10 mM Tris, 100 mM NaCl, pH 7.4.
The target in assay [4] is T2, calmodulin. Particulars: read-out: equilibrium dissociation constant; cited from earlier work.
Assay [5] addresses biotinylated bovine serum albumin (bovine) (UniProt P02769). Put plainly: homogeneous pH modulation fluorescence assay in two parallel microfluidic channels; 3 uM labeled avidin, 500 nM biotinylated BSA, 150 mM NaCl, 10 mM PBS, pH 7.0.

T1 sequence (P02701 25-152): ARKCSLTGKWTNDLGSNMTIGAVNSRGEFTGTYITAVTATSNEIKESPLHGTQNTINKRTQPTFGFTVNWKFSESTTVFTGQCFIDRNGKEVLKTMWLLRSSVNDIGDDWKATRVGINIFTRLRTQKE
biotinylated bovine serum albumin (bovine), sequence (P02769 25-607 limits assumed): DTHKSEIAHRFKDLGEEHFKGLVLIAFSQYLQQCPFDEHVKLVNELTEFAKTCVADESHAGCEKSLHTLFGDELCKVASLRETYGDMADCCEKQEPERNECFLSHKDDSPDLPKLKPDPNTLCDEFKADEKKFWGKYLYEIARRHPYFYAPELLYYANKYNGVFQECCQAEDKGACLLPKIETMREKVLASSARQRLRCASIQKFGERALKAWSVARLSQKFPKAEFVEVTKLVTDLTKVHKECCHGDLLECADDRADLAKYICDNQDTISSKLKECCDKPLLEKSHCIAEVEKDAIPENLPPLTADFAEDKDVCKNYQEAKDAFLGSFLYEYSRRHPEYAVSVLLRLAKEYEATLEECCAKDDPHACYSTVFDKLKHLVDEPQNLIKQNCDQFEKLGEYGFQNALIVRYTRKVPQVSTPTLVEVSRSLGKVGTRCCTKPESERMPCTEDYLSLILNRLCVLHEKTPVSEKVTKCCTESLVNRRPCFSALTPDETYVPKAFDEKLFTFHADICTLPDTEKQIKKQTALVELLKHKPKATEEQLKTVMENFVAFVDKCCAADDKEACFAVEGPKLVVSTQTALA

Regarding `Nc1ncnc2c1ncn2[C@@H]1O[C@H](COP(=O)(O)OP(=O)(O)OP(=O)(O)O)[C@@H](O)[C@H]1O` [ATP, adenosine triphosphate], the “affinities of different kinases for ATP” value with different kinases was “tens of nanomolar to hundreds of micromolar”.

For “para-sulforhodamine 101 [para-TEXAS RED®]”, the “fluorescence difference between channels with and without biotinylated BSA, control dye” value on avidin [1] (control with para-TEXAS RED under identical conditions (500 nM biotinylated BSA, pH 7.0)) was “no difference between the two channels”.

As to `O=C(O)CCCC[C@@H]1SC[C@@H]2NC(=O)N[C@@H]21` [biotin], the “fluorescence intensity increase (factor) when biotin was present” value on avidin [2] was “six”.

`[Ca+2].[Cl-].[Cl-]` [Ca^2+, calcium chloride]: at calmodulin [3], the “attenuation in fluorescence intensity (factor) when Ca2+ is present” value was “two”. Further, at calmodulin [4], the Kd is 14 µM.

In assay [5], “ortho-TEXAS RED succinimidyl ester labeled avidin (from UniProt P02701 25-152)” showed a fluorescence intensity with biotinylated BSA relative to the channel without it of 8 fold.

As to “biotinylated BSA: biotinylated bovine serum albumin”, the “signal in channel with biotinylated BSA relative to channel without (times brighter)” value in the assay with avidin [1] (500 nM biotinylated BSA, 3 μM ortho-TEXAS RED succinimidyl ester labeled avidin, 150 mM NaCl, 10 mM PBS, pH 7.0) is recorded as “approximately eight”.
